# Reference: US12303474B2, “S-enantiomerically enriched compositions of beta blockers for treating amyotrophic lateral sclerosis” (priority 2013, dated 2025)
# Entries after “also recorded” stand apart in the source; their conditions may differ. Where two headings read alike, the source gives them in different places. Marks after values point to notes of the source that are not given here.
# What was measured:
# [1] = test system: G93A SOD1 B6SJL hybrid (G93A) model;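 as to HR (hazard ratio) survival vs placebo, FIG. 2: dosing began after ALS onset in G93A SOD1 mice, with survival as the endpoint, defined humanely as the animal failing to regain upright posture within 30 s when placed sideways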;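 as to percent survival, comparison in words (FIGS. 2-4): dosing began after ALS onset in G93A SOD1 mice, with survival as the endpoint, defined humanely as the animal failing to regain upright posture within 30 s when placed sideways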
# [2] = test system: G93A SOD1 B6SJL hybrid (G93A) model; assay: Disease progression score (JAX SOP) in G93A SOD1 transgenic mice
# Text: The disease progression score is based on the JAX SOP (Ludolph A C, Bendotti C, Blaugrund E, Hengerer B, Loffler J P, Martin J, Meininger V, Meyer T, Moussaoui S, Robberecht W, Scott S, Silani V, Van Den Berg L H (ENMC Group For The Establishment Of Guidelines For The Conduct Of Preclinical And Proof Of Concept Studies In ALS/MND Models). 2007, which is incorporated by reference).
# [3] = test system: G93A SOD1 B6SJL hybrid (G93A) model; conditions: for Heart / gastrocnemius: end of study;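 as to HR (hazard ratio) survival vs placebo, FIG. 2: dosing began after ALS onset in G93A SOD1 mice, with survival as the endpoint, defined humanely as the animal failing to regain upright posture within 30 s when placed sideways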;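 as to percent survival, comparison in words (FIGS. 2-4): dosing began after ALS onset in G93A SOD1 mice, with survival as the endpoint, defined humanely as the animal failing to regain upright posture within 30 s when placed sideways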
# Protocol: (§1) Transgenic mice over-expressing a high copy number (25 copies) of mutated human SOD1 gene with a G93A point mutation, i.e., B6SJL-TgN [SOD1-G93A]1 Gur (G1H-G93A transgenic mice, JR2726; Hemizygote) (Gurney M E, et al., Science, 264, 1772-1775, 1994) (“G93A SOD1 B6SJL hybrid (G93A) model”), were used.
# To study the effect of the test compounds on skeletal muscle atrophy, the skeletal muscle mass were determined at the end of the study.
# The number of all mice in the population is indicated as “n” in at the bottom of FIGS. 21A-21C.
# The number of all mice in the population is indicated as “n” in at the bottom of FIGS. 20D-20F.
# The number of all mice in the population is indicated as “n” in at the bottom of FIGS. 21G-21I.
# [4] = test system: G93A SOD1 B6SJL hybrid (G93A) model; assay: Body weight and body composition (lean mass, fat mass; NMR scans) in G93A SOD1 transgenic mice; format: in vivo; conditions: for Average Δ body weight / Average Δ fat mass / Average Δ lean mass: per day alive after disease onset
# Text: as §1
# […] […] There were 16 mice in the S-oxprenolol group.
# The primary endpoint was survival, humanely defined as the ability of the animal to right itself in 30 seconds after being laid on its side. Secondary endpoints were body weight, body composition, spontaneous activity and food intake. Body weight of the animals was assessed weekly until onset of disease. Additionally, body composition (fat mass and lean body mass) was assessed using NMR scans (EchoMRI-100, Echo Medical Systems, Houston, USA) every 4 days. After onset of disease, body weight and body composition were assessed every two days until the end of the study. All personal handling the animals was strictly blinded to the randomized treatment allocation.
# To study the effect of S-oxprenolol on body weight, body weight was monitored over time.
# To study the effect of the test compounds on lean body mass, lean mass was determined at the end of the study.
# To study the effect of the test compounds on fat mass, the fat mass were determined at the end of the study.
# To study the effect of S-oxprenolol on body weight, body weight was monitored over time. […] The number of all mice in the population is indicated as “n” in at the bottom of FIGS. 20A-20C.
# To study the effect of the test compounds on lean body mass, lean mass was determined at the end of the study. […] The number of all mice in the population is indicated as “n” in at the bottom of FIGS. 20D-20F.
# To study the effect of the test compounds on fat mass, the fat mass were determined at the end of the study. […] The number of all mice in the population is indicated as “n” in at the bottom of FIGS. 20G-20I.
# [5] = 20 mg/kg/day vs. S-Oxprenolol (20)
# [6] = 10 mg/kg/day, S-pindolol 3 mg/kg/day
smiles,measurement,setting,value
"C=CCOc1ccccc1OC[C@@H](O)CNC(C)C [S-oxprenolol, (S)-1-(2-(allyloxy)phenoxy)-3-(isopropylamino)propan-2-ol]","percent survival, comparison in words (FIGS. 2-4)",[1]; 10 mg/kg/day,longer survival than those in the placebo group; also recorded: significantly superior to either placebo or S-pindolol at its preferred dose; also recorded: significantly superior to either placebo or the other compounds
same,"HR (hazard ratio) survival vs placebo, FIG. 2","[1]; 10 mg/kg/day, 95% CI: 0.171-0.88, p=0.0241",0.39
same,Median survival ratio vs placebo,"[1]; 10 mg/kg/day, 95% CI: 0.83-1.81",1.32
same,Median survival after onset of ALS symptoms,"[1]; 10 mg/kg/day, placebo 28 days",37 days
same,"survival, days after onset","[1]; 10 mg/kg/day, placebo 42 days",56 days
same,survival improved compared to placebo treated mice,"[1]; G93A mice, 10 mg/kg/day after onset of ALS",about 33%
same,"percent survival, comparison in words (FIG. 14)","[1]; all mice, 20 mg/kg/day",longer survival than other groups
same,HR survival (FIG. 14),"[1]; all mice, 10 mg/kg/day vs. placebo",0.71
same,HR survival (FIG. 14),"[1]; all mice, 20 mg/kg/day vs. placebo",0.45
same,"percent survival, comparison in words (FIG. 16)","[1]; female mice, 20 mg/kg/day",longer survival than other groups
same,HR survival (FIG. 16),"[1]; female mice, 10 mg/kg/day vs. placebo",0.96
same,HR survival (FIG. 16),"[1]; female mice, 20 mg/kg/day vs. placebo",0.53
same,"percent survival, comparison in words (FIG. 15)","[1]; male mice, 20 mg/kg/day",longer survival than other groups
same,HR survival (FIG. 15),"[1]; male mice, 10 mg/kg/day vs. placebo",0.46
same,HR survival (FIG. 15),"[1]; male mice, 20 mg/kg/day vs. placebo",0.39
same,HR Progression from score 1 to score 2 (FIG. 17),[2]; 10 mg/kg/day vs. placebo,0.56
same,HR Progression from score 1 to score 3 (FIG. 19),[2]; 10 mg/kg/day vs. placebo,0.73
same,HR Progression from score 2 to score 3 (FIG. 18),[2]; 10 mg/kg/day vs. placebo,1.07
same,HR Progression from score 1 to score 2 (FIG. 17),[2]; [5],1.17
same,HR Progression from score 1 to score 3 (FIG. 19),[2]; [5],1.48
same,HR Progression from score 2 to score 3 (FIG. 18),[2]; [5],1.20
same,HR Progression from score 1 to score 2 (FIG. 17),[2]; 20 mg/kg/day vs. placebo,0.51
same,HR Progression from score 1 to score 3 (FIG. 19),[2]; 20 mg/kg/day vs. placebo,0.47
same,HR Progression from score 2 to score 3 (FIG. 18),[2]; 20 mg/kg/day vs. placebo,0.64
same,"gastrocnemius weight over days after onset, in words (FIG. 9)",[3]; 10 mg/kg/day,steady
same,"tibialis anterior muscle weight over days after onset, in words (FIG. 11)",[3]; 10 mg/kg/day,steady
same,"correlation R of tibialis anterior muscle weight with days after onset (=survival), FIG. 11","[3]; 10 mg/kg/day, p=0.72, placebo R: −0.67",0.15
same,"correlation R of gastrocnemius weight with days after onset (=survival), FIG. 9","[3]; 10 mg/kg/day, p=0.94, placebo R: −0.56",−0.03
same,BAT (brown adipose tissue),"[3]; all mice, 10 mg/kg/d",46.8 ± 3.5 mg
same,EDL (extensor digitorum longus),"[3]; all mice, 10 mg/kg/d",7.18 ± 0.34 mg
same,soleus,"[3]; all mice, 10 mg/kg/d",5.89 ± 0.35 mg
same,Heart,"[3]; all mice, 10 mg/kg/d",108.6 ± 5.8 mg
same,gastrocnemius,"[3]; all mice, 10 mg/kg/d",55.1 ± 4.0 mg
same,BAT (brown adipose tissue),"[3]; all mice, 20 mg/kg/d",43.7 ± 2.3 mg
same,EDL (extensor digitorum longus),"[3]; all mice, 20 mg/kg/d",7.791 ± 0.29*^+++ mg
same,soleus,"[3]; all mice, 20 mg/kg/d",6.42 ± 0.39 mg
same,Heart,"[3]; all mice, 20 mg/kg/d",104.1 ± 3.5 mg
same,gastrocnemius,"[3]; all mice, 20 mg/kg/d",50.1 ± 2.9 mg
same,BAT (brown adipose tissue),"[3]; female mice, 10 mg/kg/d",39.4 ± 4.2 mg
same,EDL (extensor digitorum longus),"[3]; female mice, 10 mg/kg/d",7.03 ± 0.51 mg
same,soleus,"[3]; female mice, 10 mg/kg/d",5.71 ± 0.48 mg
same,Heart,"[3]; female mice, 10 mg/kg/d",92.3 ± 3.2^p=0.064 mg
same,gastrocnemius,"[3]; female mice, 10 mg/kg/d",50.5 ± 4.0*^p=0.060 ^vs propanolol mg
same,BAT (brown adipose tissue),"[3]; female mice, 20 mg/kg/d",37.1 ± 2.9 mg
same,EDL (extensor digitorum longus),"[3]; female mice, 20 mg/kg/d",7.29 ± 0.42*^$ mg
same,soleus,"[3]; female mice, 20 mg/kg/d",6.15 ± 0.30 mg
same,Heart,"[3]; female mice, 20 mg/kg/d",92.8 ± 3.0 mg
same,gastrocnemius,"[3]; female mice, 20 mg/kg/d",46.2 ± 3.9 mg
same,BAT (brown adipose tissue),"[3]; male mice, 10 mg/kg/d",53.2 ± 5.0 mg
same,EDL (extensor digitorum longus),"[3]; male mice, 10 mg/kg/d",7.28 ± 0.47 mg
same,soleus,"[3]; male mice, 10 mg/kg/d",6.04 ± 0.53 mg
same,Heart,"[3]; male mice, 10 mg/kg/d",122.6 ± 8.8 mg
same,gastrocnemius,"[3]; male mice, 10 mg/kg/d",59.1 ± 6.6 mg
same,BAT (brown adipose tissue),"[3]; male mice, 20 mg/kg/d",46.5 ± 3.0 mg
same,EDL (extensor digitorum longus),"[3]; male mice, 20 mg/kg/d",8.15 ± 0.39^$$$ mg
same,soleus,"[3]; male mice, 20 mg/kg/d",6.58 ± 0.61 mg
same,Heart,"[3]; male mice, 20 mg/kg/d",112.4 ± 4.5 mg
same,gastrocnemius,"[3]; male mice, 20 mg/kg/d",53.1 ± 4.3 mg
same,"change in lean body mass, in words (FIG. 6)","[4]; 10 mg/kg/day, end of study",less change in lean body mass than those receiving a placebo
same,"change in fat mass per survival day after ALS onset, in words (FIG. 13)",[4]; [6],less change in fat mass than those receiving S-pindolol
same,"change in lean body mass per survival day after ALS onset, in words (FIG. 7)",[4]; [6],less change in lean body mass than those receiving S-pindolol
same,"change of body weight per survival day after ALS onset, in words (FIG. 5)",[4]; [6],body weight loss that was close to those administered S-pindolol; also recorded: less body weight loss than those in the placebo group
same,Wasting of lean mass reduced compared to placebo (FIG. 6),"[4]; 10 mg/kg/day, p=0.18",about 40%
same,Δ body weight,"[4]; all mice, 10 mg/kg/d",-5.4 ± 0.43 g
same,Δ fat mass,"[4]; all mice, 10 mg/kg/d",-1.26 ± 0.14 g
same,Δ lean mass,"[4]; all mice, 10 mg/kg/d",-3.31 ± 0.33 g
same,Average Δ body weight,"[4]; all mice, 10 mg/kg/d",-123 ± 11.6 mg/day
same,Average Δ fat mass,"[4]; all mice, 10 mg/kg/d",-29.4 ± 3.7 mg/day
same,Average Δ lean mass,"[4]; all mice, 10 mg/kg/d",-89.6 ± 9.1 mg/day
same,Δ body weight,"[4]; all mice, 20 mg/kg/d",-5.56 ± 0.47 g
same,Δ fat mass,"[4]; all mice, 20 mg/kg/d",-1.56 ± 0.18 g
same,Δ lean mass,"[4]; all mice, 20 mg/kg/d",-4.78 ± 0.41 g
same,Average Δ body weight,"[4]; all mice, 20 mg/kg/d",−99.4 ± 9.7^p=0.064 mg/day
same,Average Δ fat mass,"[4]; all mice, 20 mg/kg/d",-29.8 ± 3.6 mg/day
same,Average Δ lean mass,"[4]; all mice, 20 mg/kg/d",-93.3 ± 7.5 mg/day
same,"change in fat mass, in words (FIG. 12)","[4]; end of study, p>0.5",no effect on the loss of fat mass
same,Δ body weight,"[4]; female mice, 10 mg/kg/d",-4.51 ± 0.55 g
same,Δ fat mass,"[4]; female mice, 10 mg/kg/d",−1.17 ± 0.21^p=0.059 g
same,Δ lean mass,"[4]; female mice, 10 mg/kg/d",-3.99 ± 0.37 g
same,Average Δ body weight,"[4]; female mice, 10 mg/kg/d",-103.3 ± 16.1 mg/day
same,Average Δ fat mass,"[4]; female mice, 10 mg/kg/d",-25.9 ± 4.8 mg/day
same,Average Δ lean mass,"[4]; female mice, 10 mg/kg/d",-69.2 ± 10.8 mg/day
same,Δ body weight,"[4]; female mice, 20 mg/kg/d",-4.57 ± 0.55 g
same,Δ fat mass,"[4]; female mice, 20 mg/kg/d",-1.29 ± 0.17 g
same,Δ lean mass,"[4]; female mice, 20 mg/kg/d",-3.97 ± 0.49 g
same,Average Δ body weight,"[4]; female mice, 20 mg/kg/d",-82.0 ± 13.6 mg/day
same,Average Δ fat mass,"[4]; female mice, 20 mg/kg/d",−26.8 ± 4.4^+ mg/day
same,Average Δ lean mass,"[4]; female mice, 20 mg/kg/d",90.7 ± 10.9 mg/day
same,Δ body weight,"[4]; male mice, 10 mg/kg/d",-6.57 ± 0.57 g
same,Δ fat mass,"[4]; male mice, 10 mg/kg/d",-1.44 ± 0.19 g
same,Δ lean mass,"[4]; male mice, 10 mg/kg/d",-3.67 ± 0.49 g
same,Average Δ body weight,"[4]; male mice, 10 mg/kg/d",-150.3 ± 14.5 mg/day
same,Average Δ fat mass,"[4]; male mice, 10 mg/kg/d",-33.6 ± 5.7 mg/day
same,Average Δ lean mass,"[4]; male mice, 10 mg/kg/d",-115.1 ± 13.9 mg/day
same,Δ body weight,"[4]; male mice, 20 mg/kg/d",-6.36 ± 0.67 g
same,Δ fat mass,"[4]; male mice, 20 mg/kg/d",-1.78 ± 0.28 g
same,Δ lean mass,"[4]; male mice, 20 mg/kg/d",-5.34 ± 0.56 g
same,Average Δ body weight,"[4]; male mice, 20 mg/kg/d",-115.7 ± 12.6 mg/day
same,Average Δ fat mass,"[4]; male mice, 20 mg/kg/d",-32.1 ± 5.4 mg/day
same,Average Δ lean mass,"[4]; male mice, 20 mg/kg/d",-95.8 ± 10.6 mg/day
